Measured values published in ChEMBL document CHEMBL2074107, “Zoledronic acid is synergic with vinblastine to induce apoptosis in a multidrug resistance protein-1 dependent way: an in vitro study” (Cell Biol Int, 2006).

Molecular target: Multidrug resistance-associated protein 1 (Homo sapiens, UniProt P33527)
Test: TP_TRANSPORTER: inhibition of apoptosis in hMRP1-expressing HEK293 cells
Type: functional, cell-based

Multidrug resistance-associated protein 1, sequence (P33527 whole entry): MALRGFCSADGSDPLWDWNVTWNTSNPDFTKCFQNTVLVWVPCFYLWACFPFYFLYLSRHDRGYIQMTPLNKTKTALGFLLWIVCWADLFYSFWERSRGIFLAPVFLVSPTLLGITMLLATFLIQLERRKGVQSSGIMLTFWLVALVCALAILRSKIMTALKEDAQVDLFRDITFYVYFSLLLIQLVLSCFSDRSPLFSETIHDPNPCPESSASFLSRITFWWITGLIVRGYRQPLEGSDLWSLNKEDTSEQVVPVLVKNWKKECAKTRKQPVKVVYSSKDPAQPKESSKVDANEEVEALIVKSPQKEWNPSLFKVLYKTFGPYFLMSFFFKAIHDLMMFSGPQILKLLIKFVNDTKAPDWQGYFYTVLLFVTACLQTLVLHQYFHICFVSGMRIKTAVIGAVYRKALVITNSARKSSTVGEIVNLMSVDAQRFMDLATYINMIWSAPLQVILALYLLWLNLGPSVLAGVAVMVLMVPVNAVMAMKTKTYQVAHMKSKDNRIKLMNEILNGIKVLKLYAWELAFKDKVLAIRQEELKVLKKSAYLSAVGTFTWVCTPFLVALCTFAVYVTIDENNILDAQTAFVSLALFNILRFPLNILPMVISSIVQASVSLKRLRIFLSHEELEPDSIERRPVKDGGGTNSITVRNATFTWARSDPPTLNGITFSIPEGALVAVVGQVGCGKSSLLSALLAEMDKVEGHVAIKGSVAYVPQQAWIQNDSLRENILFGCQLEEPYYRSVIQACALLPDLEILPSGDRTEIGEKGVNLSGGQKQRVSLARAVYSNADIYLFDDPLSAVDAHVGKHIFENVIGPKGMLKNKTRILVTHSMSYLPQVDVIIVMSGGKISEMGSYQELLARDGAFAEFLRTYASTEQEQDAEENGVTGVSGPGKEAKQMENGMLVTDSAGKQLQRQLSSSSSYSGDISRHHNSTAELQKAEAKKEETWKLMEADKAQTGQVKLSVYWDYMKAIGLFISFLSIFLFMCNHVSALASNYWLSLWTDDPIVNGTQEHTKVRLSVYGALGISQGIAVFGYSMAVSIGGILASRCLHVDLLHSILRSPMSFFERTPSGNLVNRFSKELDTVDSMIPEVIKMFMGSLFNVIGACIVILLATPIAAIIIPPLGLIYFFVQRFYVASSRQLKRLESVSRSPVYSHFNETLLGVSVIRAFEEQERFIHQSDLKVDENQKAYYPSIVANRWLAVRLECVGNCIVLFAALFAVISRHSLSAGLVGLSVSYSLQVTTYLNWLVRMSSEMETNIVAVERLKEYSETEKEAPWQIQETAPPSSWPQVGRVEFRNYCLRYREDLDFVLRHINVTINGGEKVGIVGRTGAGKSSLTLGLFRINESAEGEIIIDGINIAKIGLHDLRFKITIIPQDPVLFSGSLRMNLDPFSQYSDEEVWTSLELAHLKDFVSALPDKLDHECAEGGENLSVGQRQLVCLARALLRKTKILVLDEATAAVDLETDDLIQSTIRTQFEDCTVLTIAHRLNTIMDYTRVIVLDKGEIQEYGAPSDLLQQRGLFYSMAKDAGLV

Structure (SMILES)	Activity
CC[C@]1(O)C[C@@H]2CN(CCc3c([nH]c4ccccc34)[C@@](C(=O)OC)(c3cc4c(cc3OC)N(C)[C@H]3[C@@](O)(C(=O)OC)[C@H](OC(C)=O)[C@]5(CC)C=CCN6CC[C@]43[C@@H]65)C2)C1 [VINBLASTINE]	substrate []
O.O=P(O)(O)C(O)(Cn1ccnc1)P(=O)(O)O [ZOLEDRONIC ACID]	substrate []
